row,melting point,SMILES
1,216.5 to 217 °C,"COc1ccc(CNc2nc(-c3ccccc3)c(-c3ccc(=O)n(C(C)C)n3)nc2C(=O)O)cc1 [Example 46, 6-(1-isopropyl-6-oxo-1,6-dihydro-3-pyridazinyl)-3-[(4-methoxybenzyl)amino]-5-phenyl-2-pyrazinecarboxylic acid]"
2,89 to 93 °C,"COc1ccc(CNc2nc(-c3ccccc3)c(-c3ccc(=O)n(C(C)C)n3)nc2C#N)cc1 [Example 47, 6-(1-isopropyl-6-oxo-1,6-dihydro-3-pyridazinyl)-3-[(4-methoxybenzyl)amino]-5-phenyl-2-pyrazinecarbonitrile]"
3,138 to 140 °C,"COc1ccc(CNc2cnc(-c3ccc(=O)n(C(C)C)n3)c(-c3ccccc3)n2)cc1 [Example 49, 2-isopropyl-6-{5-[(4-methoxybenzyl)amino]-3-phenyl-2-pyrazinyl}-3(2H)-pyridazinone]"
4,173 to 174 °C,"COc1ccc(CNc2cnc(-c3ccccc3)c(-c3ccc(=O)n(C(C)C)n3)n2)cc1 [Example 49, 2-isopropyl-6-{6-[(4-methoxybenzyl)amino]-3-phenyl-2-pyrazinyl}-3(2H)-pyridazinone]"
5,214 to 217 °C,"CC(C)n1nc(-c2nc(N)cnc2-c2ccccc2)ccc1=O [Example 50, 6-(6-amino-3-phenyl-2-pyrazinyl)-2-isopropyl-3(2H)-pyridazinone]"
6,207 to 209 °C,"COc1ccc(CN(Cc2ccc(OC)cc2)c2nc(-c3ccccc3)c(-c3ccc(=O)n(C(C)C)n3)nc2C#N)cc1 [Example 51, 3-[bis(4-methoxybenzyl)amino]-6-(1-isopropyl-6-oxo-1,6-dihydro-3-pyridazinyl)-5-phenyl-2-pyrazinecarbonitrile]"
7,120 to 122.5 °C,"COc1ccc(CN(Cc2ccc(OC)cc2)c2nc(-c3ccccc3)c(-c3ccc(=O)n(C(C)C)n3)nc2C(N)=O)cc1 [Example 52, 3-[bis(4-methoxybenzyl)amino]-6-(1-isopropyl-6-oxo-1,6-dihydro-3-pyridazinyl)-5-phenyl-2-pyrazinecarboxamide]"
8,204 to 206 °C,"CC(C)n1nc(-c2nc(Br)c(N)nc2-c2ccccc2)ccc1=O [Example 53, 6-(5-amino-6-bromo-3-phenyl-2-pyrazinyl)-2-isopropyl-3(2H)-pyridazinone]"
9,211 to 214 °C,"CSc1nc(-c2ccc(=O)n(C(C)C)n2)c(-c2ccccc2)nc1N [Example 54, 6-[5-amino-6-(methylthio)-3-phenyl-2-pyrazinyl]-2-isopropyl-3(2H)-pyridazinone]"
10,225 to 227 °C,"CC(C)n1nc(-c2nc([S+](C)[O-])c(N)nc2-c2ccccc2)ccc1=O (stereo not shown) [Example 55, 6-[5-amino-6-(methylsulfinyl)-3-phenyl-2-pyrazinyl]-2-isopropyl-3(2H)-pyridazinone]"
11,249 to 251 °C,"CC(C)n1nc(-c2nc(S(C)(=O)=O)c(N)nc2-c2ccccc2)ccc1=O [Example 55, 6-[5-amino-6-(methylsulfonyl)-3-phenyl-2-pyrazinyl]-2-isopropyl-3(2H)-pyridazinone]"
12,> 250 °C,"CCn1nc(-c2nc(C(=O)O)c(NCc3ccc(OC)cc3)nc2-c2ccccc2)ccc1=O [Example 57, 6-(1-ethyl-6-oxo-1,6-dihydro-3-pyridazinyl)-3-[(4-methoxybenzyl)amino]-5-phenyl-2-pyrazinecarboxylic acid]"
13,148 to 150 °C,"CCn1nc(-c2ncc(NCc3ccc(OC)cc3)nc2-c2ccccc2)ccc1=O [Example 58, 2-ethyl-6-{5-[(4-methoxybenzyl)amino]-3-phenyl-2-pyrazinyl}-3(2H)-pyridazinone]"
14,227 to 229 °C,"CCn1nc(-c2ncc(N)nc2-c2ccccc2)ccc1=O [Example 59, 6-(5-amino-3-phenyl-2-pyrazinyl)-2-ethyl-3(2H)-pyridazinone]"
15,220 to 222 °C,"Cn1nc(-c2nc(Br)c(N)nc2-c2ccccc2)ccc1=O [Example 60, 6-(5-amino-6-bromo-3-phenyl-2-pyrazinyl)-2-methyl-3(2H)-pyridazinone]"
16,204 to 205.5 °C,"CSc1nc(-c2ccc(=O)n(C)n2)c(-c2ccccc2)nc1N [Example 61, 6-[5-amino-6-(methylthio)-3-phenyl-2-pyrazinyl]-2-methyl-3(2H)-pyridazinone]"
17,209 to 210.5 °C,"Cn1nc(-c2nc([S+](C)[O-])c(N)nc2-c2ccccc2)ccc1=O (stereo not shown) [Example 62, 6-[5-amino-6-(methylsulfinyl)-3-phenyl-2-pyrazinyl]-2-methyl-3(2H)-pyridazinone]"
18,231 to 233 °C,"Cn1nc(-c2nc(S(C)(=O)=O)c(N)nc2-c2ccccc2)ccc1=O [Example 62, 6-[5-amino-6-(methylsulfonyl)-3-phenyl-2-pyrazinyl]-2-methyl-3(2H)-pyridazinone]"
19,190 to 194 °C,"CC(C)n1nc(-c2ncc(N=S(C)C)nc2-c2ccccc2)ccc1=O [Example 65, 6-{5-[(dimethyl-lambda˜4˜-sulfanylidene)amino]-3-phenyl-2-pyrazinyl}-2-isopropyl-3(2H)-pyridazinone]"
20,164 to 166 °C,"CC(C)n1nc(-c2nc(Br)c(N=O)nc2-c2ccccc2)ccc1=O [Example 67, 6-(6-bromo-5-nitroso-3-phenyl-2-pyrazinyl)-2-isopropyl-3(2H)-pyridazinone]"

row,melting point,SMILES
1,198 to 200 °C,"CC(C)n1nc(-c2nc(O)cnc2-c2ccccc2)ccc1=O [Example 68, 6-(6-hydroxy-3-phenyl-2-pyrazinyl)-2-isopropyl-3(2H)-pyridazinone]"
2,133 to 135 °C,"COCOCC#Cc1nc(-c2ccc(=O)n(C(C)C)n2)c(-c2ccccc2)nc1N [Example 71, 6-{5-amino-6-[3-(methoxymethoxy)-1-propyn-1-yl]-3-phenyl-2-pyrazinyl}-2-isopropyl-3(2H)-pyridazinone]"
3,238 to 240 °C,"CC(C)n1nc(-c2nc(C#CC3(O)CCCCC3)c(N)nc2-c2ccccc2)ccc1=O [Example 73, 6-{5-amino-6-[(1-hydroxycyclohexyl)ethynyl]-3-phenyl-2-pyrazinyl}-2-isopropyl-3(2H)-pyridazinone]"
4,245.5 to 247 °C,"CC(C)n1nc(-c2nc(C#Cc3ccccn3)c(N)nc2-c2ccccc2)ccc1=O [Example 74, 6-[5-amino-3-phenyl-6-(2-pyridylethynyl)-2-pyrazinyl]-2-isopropyl-3(2H)-pyridazinone]"
5,217 °C (dec.),"C#Cc1nc(-c2ccc(=O)n(C(C)C)n2)c(-c2ccccc2)nc1N [Example 76, 6-(5-amino-6-ethynyl-3-phenyl-2-pyrazinyl)-2-isopropyl-3(2H)-pyridazinone]"
6,234 to 236 °C,"Cn1nc(-c2nc(C#Cc3ccccc3)c(N)nc2-c2ccccc2)ccc1=O [Example 77, 6-[5-amino-3-phenyl-6-(phenylethynyl)-2-pyrazinyl]-2-methyl-3(2H)-pyridazinone]"
7,225 to 226 °C,"CC(C)n1nc(-c2nc(-c3ccccc3)c(N)nc2-c2ccccc2)ccc1=O [Example 78, 6-(5-amino-3,6-diphenyl-2-pyrazinyl)-2-isopropyl-3(2H)-pyridazinone]"
8,228 to 230 °C,"CC(C)n1nc(-c2nc(-c3ccsc3)c(N)nc2-c2ccccc2)ccc1=O [Example 79, 6-[5-amino-3-phenyl-6-(3-thienyl)-2-pyrazinyl]-2-isopropyl-3(2H)-pyridazinone]"
9,181 to 183 °C,"CC(C)n1nc(-c2nc(-c3cccs3)c(N)nc2-c2ccccc2)ccc1=O [Example 80, 6-[5-amino-3-phenyl-6-(2-thienyl)-2-pyrazinyl]-2-isopropyl-3(2H)-pyridazinone]"
10,233 to 235 °C,"CC(C)n1nc(-c2nc(-c3ccoc3)c(N)nc2-c2ccccc2)ccc1=O [Example 81, 6-[5-amino-6-(3-furyl)-3-phenyl-2-pyrazinyl]-2-isopropyl-3(2H)-pyridazinone]"
11,222 to 224 °C,"CC(C)n1nc(-c2nc(-c3ccncc3)c(N)nc2-c2ccccc2)ccc1=O [Example 82, 6-[5-amino-3-phenyl-6-(4-pyridyl)-2-pyrazinyl]-2-isopropyl-3(2H)-pyridazinone]"
12,230 to 232.5 °C,"COc1ccc(-c2nc(-c3ccc(=O)n(C(C)C)n3)c(-c3ccccc3)nc2N)cn1 [Example 83, 6-[5-amino-6-(6-methoxy-3-pyridyl)-3-phenyl-2-pyrazinyl]-2-isopropyl-3(2H)-pyridazinone]"
13,224 to 225.5 °C,"CC(C)n1nc(-c2nc(-c3cccnc3)c(N)nc2-c2ccccc2)ccc1=O [Example 84, 6-[5-amino-3-phenyl-6-(3-pyridyl)-2-pyrazinyl]-2-isopropyl-3(2H)-pyridazinone]"
14,220 to 221.5 °C,"Cn1nc(-c2nc(-c3ccccc3)c(N)nc2-c2ccccc2)ccc1=O [Example 85, 6-(5-amino-3,6-diphenyl-2-pyrazinyl)-2-methyl-3(2H)-pyridazinone]"
15,177 °C (dec.),"Cn1nc(-c2nc(-c3cccs3)c(N)nc2-c2ccccc2)ccc1=O [Example 86, 6-[5-amino-3-phenyl-6-(2-thienyl)-2-pyrazinyl]-2-methyl-3(2H)-pyridazinone]"
16,244.5 to 245 °C,"CC(C)n1nc(-c2nc(/C=C/c3ccccc3)c(N)nc2-c2ccccc2)ccc1=O [Example 87, 6-{5-amino-3-phenyl-6-[(E)-2-phenylvinyl]-2-pyrazinyl}-2-isopropyl-3(2H)-pyridazinone]"
17,211 to 213 °C,"CC(C)n1nc(-c2nc(-c3ccco3)c(N)nc2-c2ccccc2)ccc1=O [Example 88, 6-[5-amino-6-(2-furyl)-3-phenyl-2-pyrazinyl]-2-isopropyl-3(2H)-pyridazinone]"
18,186 to 188 °C,"Cn1nc(-c2nc(-c3ccco3)c(N)nc2-c2ccccc2)ccc1=O [Example 89, 6-[5-amino-6-(2-furyl)-3-phenyl-2-pyrazinyl]-2-methyl-3(2H)-pyridazinone]"
19,> 250 °C,"CC(C)n1nc(-c2nc(-c3cn[nH]c3)c(N)nc2-c2ccccc2)ccc1=O [Example 90, 6-[5-amino-3-phenyl-6-(1H-pyrazol-4-yl)-2-pyrazinyl]-2-isopropyl-3(2H)-pyridazinone]"
20,191 to 193 °C,"CC(C)n1nc(-c2nc(C3=CCCN(C)C3)c(N)nc2-c2ccccc2)ccc1=O [Example 92, 6-[5-amino-6-(1-methyl-1,2,5,6-tetrahydro-3-pyridyl)-3-phenyl-2-pyrazinyl]-2-isopropyl-3(2H)-pyridazinone]"
